In patent US20200255884A1, “METHOD OF DETECTION OF DNA END(S) AND ITS USE” (INTODNA SP. Z O.O., priority 2017, published 2020):

Legend:
HeLa 21-4 cells [1] = assay: DNA ends detection in fixed HeLa cells subjected to damaging agents (H2O2, Tpt), Procedure 1; type: cell-based; details: 30 min at 37 °C, H2O2 4 mM, Tpt 20 μM
Procedure: Procedure: • 1. Pre-preparation (optional): • Incubation of live cells with 0.5-10 mM Tris (5 min-1 h at room temperature (RT)), cells should be monitored for morphological abnormalities. • 2. Fixation and permeabilization: • a. Incubation with 1%-4% formaldehyde solution, 10-15 min, 4° C. (optional) • b. Incubation with an […] detergent (e.g. Triton X-100 (0.25-3%) 10 min-1 h, RT. (optional) • c. Incubation in 70% ethanol in water, 1 h minimum but preferred 12-18 h, −20° C., sample should be stable for several months. (optional but most preferred) • 3. Pre-blocking (optional): • a. Wash (PBS 1×5 min) • b. Streptavidin solution—incubation performed on a droplet, 30 min, RT • c. Wash (PBS 3×5 min) • d. Biotin solution—incubation performed on a droplet, 30 min, RT • e. Wash (PBS 3×5 min) • 4. Increasing accessibility of DNA ends: • Incubation with 0.5-10 mM EDTA in water, 10 min-1 h, RT. • 5. Incorporation procedure: • Incorporation of unmodified and modified nucleotides (e.g. BrdU) using terminal deoxynucleotidyl transferase: • a. incubation is performed on a droplet in a humid chamber • b. samples are rinsed in wash buffers • 6. Blocking: • Incubation with 1-5% BSA solution in PBS (from 1 h to overnight in 4° C., RT). • 7. Incubation with primary antibodies—performed on a droplet in a humid chamber: • a. primary antibodies type 1 (e.g. mouse monoclonal against BrdU), preferred dilution 1:100 in 1-5% BSA, 1 h, RT • b. wash (PBS 3×5 min) • c. primary antibodies type 2 (e.g. rabbit polyclonal against BrdU), preferred dilution 1:100 in 1-5% BSA, 1 h, RT • d. wash (PBS 3×5 min) • 8. PLA procedure: • a. incubation with PLA Probes diluted in 1% BSA (37° C., 60 min, reaction on a droplet, in a humid chamber) in 40 μl of the reaction mixture per one coverslip: • 8 μl of PLA Probe MINUS stock (e.g. anti-mouse) • 8 μl of PLA Probe PLUS stock (e.g. anti-rabbit) • 24 μl of 1% BSA • b. wash samples with Wash Buffer A (2×5 min) • c. ligation—incubation (37° C., 30 min, reaction on a droplet, in a humid chamber) in 40 μl of the reaction mixture per one coverslip: • 8 μl of 5× Ligation stock (Sigma, Duolink, DUO82009), • 31 μl of ultrapure, RNAse/DNAse free, distilled water, • 1 μl of Ligase (1 U/μl) (Sigma, Duolink, DUO82027 or DUO82029) • d. wash samples with Wash Buffer A (2×2 min) • e. amplification—incubation (37° C., 100 min, reaction performed on a droplet, in a humid chamber) in 40 μl of the reaction mixture per one coverslip: • 8 μl of 5× Amplification stock (Sigma, Duolink, DUO82060 or DUO82011), • 31.5 μl of ultrapure, RNAse/DNAse free, distilled water, • 0.5 μl of Polymerase (10 U/μl) (Sigma, Duolink, DUO82028 or DUO82030) • 9. Imaging of samples in PBS using a fluorescence microscope. […]

HeLa 21-4 cells [2] = assay: Detection of DNA breaks induced by photodynamic effect (ethidium bromide + 488 nm laser) in HeLa cells, Procedure 1; type: cell-based; details: ethidium bromide (500 μM) 10 min, dose 9 mJ
Procedure: In this experiment the DNA breaks were induced by treating live cells (HeLa 21-4 cells, obtained from prof. P.R. Cook, Oxford University) with ethidium bromide (500 μM) for 10 min and then parking the laser beam (488 nm) at a chosen place inside the nucleus (dose: 9 mJ) 2 minutes after illumination step 2 of Procedure 1 was performed. The aim of the experiment was to directly detect DNA break (s) inflicted at a specific area of the cell nucleus by a photodynamic effect.
HeLa 21-4 cells were first seeded on 18-mm coverslips and cultured for 3 days in DMEM supplemented with 10% FBS. After culturing, DNA damage was induced in chosen cells, as described previously, followed by incubation in 70% ethanol in water, 15 h, −20° C. After that, increasing of accessibility of DNA ends (step 4) was performed with 10 mM EDTA in water, 1 h, RT. Incorporation of modified (BrdUTP) nucleotides (Phoenix Flow Systems) by terminal deoxynucleotidyl transferase was performed according to the kit supplier's instructions (APO-BRDU kit, Phoenix Flow Systems). The cells were then incubated with 1% BSA solution in PBS (overnight in 4° C.). The incubation with primary antibodies type 1 and 2 according to step 7 of Procedure 2 were performed using mouse monoclonal anti-BrdU (Abcam, ab8039) and rabbit polyclonal anti-BrdU (Abcam, ab152095) (1:100 in 1% BSA), respectively. […]

CC[C@@]1(O)C(=O)OCc2c1cc1n(c2=O)Cc2cc3c(CN(C)C)c(O)ccc3nc2-1 [Tpt, topotecan]
percentage of cells that show signs of heavy DNA damage (apoptotic cells) in the population (HeLa 21-4 cells [1]; untreated less than 5%): approximately 18% | average number of detectable regions of incorporation of BrdU (free ends of DNA) per cell (HeLa 21-4 cells [1]; ± standard error of the mean): 16.39±4.92

CC[n+]1c(-c2ccccc2)c2cc(N)ccc2c2ccc(N)cc21 [ethidium bromide]
damaged nuclei with fluorescence focus visible at the illuminated place or in its direct proximity (HeLa 21-4 cells [2]): 90%
